Measured values from patent US5843937A (priority 1996, dated 1998).

Assays:
[1] = prior compounds; experimental animals (CC-1065); cited from earlier work
[2] = both in vitro and in experimental animals; cited from earlier work
double-stranded B-DNA = details: cited from earlier work
U937 Cells = assay: Cytotoxicity of Invented Compounds Against U937 Cells; type: cell-based; details: 3H-thymidine last 24 h
Procedure: Some of the new compounds were tested for their cytotoxicity against cancer cells. U937 cells were used to determine the IC50 values. The assay was set up in triplicate in 96 well flat bottom microtiter plates. All cells are seeded at 5×10^3 cells/well in RPMI-1640 plus 10% FCS. Drugs were added and the total volume was adjusted to 0.2 mL/well. Total incubation time was 48 h with the addition of ^3 H-thymidine for the last 24 h of incubation. The assay was harvested and counted with the packard Matrix 96 beta counter. The results were expressed as the percent growth inhibition calculated from the percent decrease in cpm of treated cells relative to the untreated controls.

B16 Melanoma = assay: Cytotoxicity of Invented Compounds Against B16 Melanoma; type: cell-based; details: Mus musculus
[3] = tested on: human liver cancer HepG2 cells; assay: Cytotoxicity of Mab-YW-242 conjugates against liver cancer HepG2 cells (3H-thymidine incorporation); type: cell-based; details: 1 h drug incubation, washed, overnight with 3H-thymidine, read-out: IC50 Values of the Mab-drug Conjugate
Procedure: Using such potent molecules for monoclonal antibody-drug conjugate has advantages over using low potency agents. The tumor specific antibody will carry these molecules specifically to tumor cells, thus enhancing the therapeutic efficacy of these compounds. The monoclonal antibody-drug conjugates are still very toxic to cancer cells. The Mab-YW-242 conjugates were tested in vitro against human liver cancer HepG2 cells. IC50 values for cell proliferation were determined by incorporation of ^3 H-thymidine.
The conjugates were tested in vitro against human liver cancer HepG2 cells. IC50 values for cell proliferation were determined by incorporation of ^3 H-thymidine. 4×10^4 of trypsinized cells in 0.1 mL of DMEM medium containing 10% of heat-inactivated FCS were added to each well of 96-well microtiter plates and incubated for 4 h at 37° C. to allow attachment of the cells. Drugs in 10 μL of PBS were added and incubated for 1 h at 37° C. Medium was removed and the cells were washed with PBS (0.2 mL). Fresh medium (0.1 mL) and ^3 H-thymidine (10 μL) were added. The cells were incubated overnight at 37° C. The cells were treated with trypsin-EDTA for 15 min at 37° C. and then harvested using a micromate 196 harvester. Radioactivity was counted and IC50 values were determined.

[4] = antitumor use; cited from earlier work
[5] = Homo sapiens, U-937, 48 h incubation

In the case of `COc1c(O)c2c(c3cc(C(=O)N4CCc5c4c(O)c(OC)c4[nH]c(C(=O)N6CC7CC78C6=CC(=O)c6[nH]cc(C)c68)cc54)[nH]c13)CCN2C(N)=O` (stereo not shown) [CC-1065], the delayed death [1] is listed as “causes delayed death in experimental animals”, the “antitumor and antimicrobial activity” value [2] is listed as “potent antitumor and antimicrobial activity both in vitro and in experimental animals” and the alkylation site (double-stranded B-DNA; by its CPI left-hand unit) is listed as “alkylates the N3 position of the 3'-adenine”. For the same compound, the “sequence preference of DNA binding” value (double-stranded B-DNA; within the minor groove) was 5'-d(A/GNTTA)-3' and 5'-d(AAAAA)-3'.

In the case of `COc1cccc2c1C(=O)c1c(O)c3c(c(O)c1C2=O)C[C@@](O)(C(=O)CO)C[C@@H]3O[C@H]1C[C@H](N)[C@H](O)[C@H](C)O1` [Doxorubicin, reference compound], the IC50 (U937 Cells; [5]) is reported as 100 nM, the IC50 (B16 Melanoma) is reported as 780 nM and the IC50 [3] is reported as 6000 nM.

For `COC(=O)c1c(C)[nH]c2c(OC(=O)N3CCN(C)CC3)cc3c(c12)[C@H](CBr)CN3C(=O)c1cc2cc(OC)c(OC)c(OC)c2[nH]1` [KW 2189], the delayed death [1] is listed as “do not cause delayed death”.

For `Cc1c[nH]c2c1[C@@]13C[C@@H]1CN(C(=O)c1cc4cc(NC(=O)c5cc6ccccc6o5)ccc4[nH]1)C3=CC2=O` [U-73975], the delayed death [1] is listed as “do not cause delayed death”.

In the case of `Cc1c[nH]c2c(O)cc3c(c12)[C@H](CCl)CN3C(=O)c1cc2cc(NC(=O)Nc3ccc4[nH]c(C(=O)N5C[C@@H](CCl)c6c5cc(O)c5[nH]cc(C)c65)cc4c3)ccc2[nH]1` [U-77779], the delayed death [1] is given as “do not cause delayed death”.

For `CCN(CC)c1ccc2cc(C(=O)Nc3ccc4[nH]c(C(=O)N5C[C@@H](CCl)c6c5cc(OC(=O)Nc5ccccc5)c5[nH]cc(C)c65)cc4c3)oc2c1` [U-80244], the delayed death [1] is listed as “do not cause delayed death”.

Work on `CC(=O)Nc1cc(C(=O)N2CC(CCl)c3c2cc(O)c2ccccc32)n(C)c1` (stereo not shown) [YW-161, 3-[(4-Acetamino-1-methylpyrrole-2-yl)carbony:L]-1-(chloromethyl)-5-hydroxy-1,2-dihydro-3H-benz[e]indole] yielded an IC50 (U937 Cells; 48 h incubation) of 5 nM.

For `CC(=O)Nc1ccc2[nH]c(C(=O)N3CC(CCl)c4c3cc(O)c3ccccc43)cc2c1` (stereo not shown) [YW-198, 3-[[5-(acetamino)-1H-indol-2'-yl]carbonyl]-1-(chloromethyl)-5-hydroxy-1,2-dihydro-3H-benz[e]indole], the IC50 (U937 Cells; [5]) was 0.2 nM.

For `CC(=O)Nc1ccc2[nH]c(C(=O)Nc3ccc4[nH]c(C(=O)N5CC(CCl)c6c5cc(O)c5ccccc65)cc4c3)cc2c1` (stereo not shown) [YW-200, 3-[[5-[[5-(Acetamino)-1H-indol-2-ylcarbonyl]amino]-1H-indol-2-yl]carbonyl]-1-(chloromethyl)-5-hydroxy-1,2-dihydro-3H-benz[e]indole], the IC50 (B16 Melanoma) was 7.2 nM.

In the case of `CC(=O)Nc1ccc2oc(C(=O)Nc3ccc4[nH]c(C(=O)N5CC(CCl)c6c5cc(O)c5ccccc65)cc4c3)cc2c1` (stereo not shown) [YW-201, 3-[[5-[[5-(Acetamino)-1H-benzofuran-2-ylcarbonyl]amino]-1H-indol-2-yl]carbonyl]-1-(chloromethyl)-5-hydroxy-1,2-dihydro-3H-benz[e]indole], the IC50 (U937 Cells; [5]) is reported as 0.07 nM.

Compound `CC(=O)Nc1ccc2[nH]c(C=CC(=O)N3CC(CCl)c4c3cc(O)c3ccccc43)cc2c1` (stereo not shown) [YW-202, 3-[[5-(acetamino)-1H-indol-2-yl]acrylyl]-1-(chloromethyl)-5-hydroxy-1,2-dihydro-3H-benz[e]indole] has an IC50 (U937 Cells; [5]) of 0.2 nM.

In the case of `CC(=O)Nc1ccc2oc(C(=O)Nc3ccc4[nH]c(C(=O)N5CC6CC67C5=CC(=O)c5ccccc57)cc4c3)cc2c1` (stereo not shown) [YW-213, N^2-[[5-[[[5-(Acetamino)-1H-benzofuran-2-yl]carbonyl]amino]-1H-indol-2-yl]carbonyl]1,2,9,9a-tetrahydrocyclopropa[c]-benz[e]indol-4-one], the IC50 (U937 Cells; [5]) is reported as 0.2 nM.

In the case of `O=C(C=Cc1cc2ccccc2o1)Nc1ccc2[nH]c(C(=O)N3CC(CCl)c4c3cc(O)c3ccccc43)cc2c1` (stereo not shown) [YW-215, 3-[[5-[(1H-Benzofuran-2-ylacrylyl)amino]-1H-indol-2-yl]carbony 1]-1-(chloromethyl)-5-hydroxy-1,2-dihydro-3H-benz[e]indole], the IC50 (U937 Cells; 48 h incubation) is reported as 0.09 nM.

For `CCCC(=O)Nc1cc(C=CC(=O)N2CC(CCl)c3c2cc(O)c2ccccc32)n(C)c1` (stereo not shown) [YW-222, 3-(4-Butyramido-1-methyl-2-pyrroleacryloylcarbonyl)-1-(chloromethyl)-5-hydroxy-1,2-dihydro-3H-benz[e]indole], the IC50 (U937 Cells; [5]) was 0.5 nM.

`O=C(CCCO)Nc1ccc2[nH]c(C(=O)N3CC(CCl)c4c3cc(O)c3ccccc43)cc2c1` (stereo not shown) [YW-231, 3-[[5-[(4-Hydroxy)butyramino]-1H-indol-2'-yl]carbonyl]-1-(chloromethyl)-5-hydroxy-1,2-dihydro-3H-benz[e]indole] showed an IC50 (U937 Cells; [5]) of 0.6 nM and an IC50 (B16 Melanoma) of 4 nM.

For `O=C(CCCC[C@@H]1SC[C@@H]2NC(=O)N[C@@H]21)Nc1ccc2[nH]c(C(=O)N3CC(CCl)c4c3cc(O)c3ccccc43)cc2c1` (stereo partly shown) [YW-235, 3-[[5-(Biotin-amino)-1H-indol-2'-yl]carbonyl]-1-(chloromethyl)-5-hydroxy-1,2-dihydro-3H-benz[e]indole], the IC50 (U937 Cells; [5]) was 0.7 nM.

In the case of `Nc1ccc2[nH]c(C(=O)N3CC(CCl)c4c3cc(O)c3ccccc43)cc2c1` (stereo not shown) [YW-242, 3-[(5-Amino-1H-indol-2'-yl)carbonyl]-1-(chloromethyl)-5-hydroxy-1,2-dihydro-3H-benz[e]indole], the IC50 (U937 Cells; [5]) is reported as 0.09 nM, the IC50 (B16 Melanoma) is reported as 11 nM and the IC50 [3] is reported as 200 nM.

`COC(=O)[C@H]1O[C@@H](OCCCC(=O)Nc2ccc3[nH]c(C(=O)N4CC(CCl)c5c4cc(O)c4ccccc54)cc3c2)[C@H](OC(C)=O)[C@@H](OC(C)=O)[C@@H]1OC(C)=O` (stereo partly drawn) [YW-247, 3-[[5-[4-(Methyl 2,3,4-tri-O-acetyl-1-deoxy-b-D-glucuronate)butyramino]-1H-indol-2'-yl]carbonyl]-1-(chloromethyl)-5-hydroxy-1,2-dihydro-3H-benz[e]indole] showed an IC50 (U937 Cells; [5]) of 1.4 nM.

`COC(=O)[C@H]1O[C@@H](OCCCC(=O)Nc2ccc3[nH]c(C(=O)Nc4ccc5[nH]c(C(=O)N6CC(CCl)c7c6cc(O)c6ccccc76)cc5c4)cc3c2)[C@H](OC(C)=O)[C@@H](OC(C)=O)[C@@H]1OC(C)=O` (stereo partly drawn) [YW-249, 3-[[5-[[5-[4-(Methyl 2,3,4-tri-O-acetyl-1-deoxy-b-D-glucuronate)butyramino]-1H-indol-2-ylcarbonyl]amino]-1H-indol-2-yl]carbony 1]-1-(chloromethyl)-5-hydroxy-1,2-dihydro-3H-benz[e]indole] gave an IC50 (U937 Cells; [5]) of 0.55 nM.

Work on `O=C(CCCO)Nc1ccc2[nH]c(C(=O)Nc3ccc4[nH]c(C(=O)N5CC(CCl)c6c5cc(O)c5ccccc65)cc4c3)cc2c1` (stereo not shown) [YW-254, 3-[[5-[[5-[4-(Hydroxy)butyramino]-1H-indol-2-ylcarbonyl]amino]-1H-indol-2-yl]carbonyl]-1-(chloromethyl)-5-hydroxy-1,2-dihydro-3H-benz[e]indole] yielded an IC50 (U937 Cells; [5]) of 0.1 nM.

With `COC(=O)[C@H]1O[C@@H](OCCCC(=O)Nc2ccc3[nH]c(C(=O)Nc4ccc5[nH]c(C(=O)Nc6ccc7[nH]c(C(=O)N8CC(CCl)c9c8cc(O)c8ccccc98)cc7c6)cc5c4)cc3c2)[C@H](OC(C)=O)[C@@H](OC(C)=O)[C@@H]1OC(C)=O` (stereo partly drawn) [YW-258, 3-[[5-[[5-[[5-[4-(Methyl 2,3,4-tri-O-acetyl-1-deoxy-b-D-glucuronate)butyramino]-1H-indo 1-2-ylcarbonyl]amino]-1H-indol-2-ylcarbonyl]amino]-1H-indol-2-yl]carbonyl]-1-(chloromethyl)-5-hydroxy-1,2-dihydro-3H-benz[e] indole] the IC50 (U937 Cells; [5]) was 0.08 nM.

`O=C(CCCO)Nc1ccc2[nH]c(C(=O)Nc3ccc4[nH]c(C(=O)Nc5ccc6[nH]c(C(=O)N7CC(CCl)c8c7cc(O)c7ccccc87)cc6c5)cc4c3)cc2c1` (stereo not shown) [YW-259] gave an IC50 (U937 Cells; [5]) of 0.09 nM.

Compound `Cn1cc(N)cc1C(=O)N1CC(CCl)c2c1cc(O)c1ccccc21` (stereo not shown) [YW-284, 3-[(4-Amino-1-methylpyrrole-2-yl)carbonyl]-1-(chloromethyl)-5-hydroxy-1,2-dihydro-3H-benz[e]indole] has an IC50 (U937 Cells; [5]) of 9 nM.

In the case of `O=C(Cc1cccs1)N[C@@H]1C(=O)N2C(C(=O)O)=C(COC(=O)Nc3ccc4[nH]c(C(=O)N5CC(CCl)c6c5cc(O)c5ccccc65)cc4c3)C[S+]([O-])[C@H]12` (stereo partly shown) [YW-285], the IC50 (U937 Cells; [5]) is reported as 0.9 nM.

For `Cn1cc(NC(=O)c2cc(NC(=O)c3cc(NC=O)cn3C)cn2C)cc1C(=O)NCCC(=N)N` [distamycin], the therapeutic efficacy [4] is listed as “low therapeutic efficacy”.

For `Cn1cc(NC(=O)c2cc(NC(=O)CN=C(N)N)cn2C)cc1C(=O)NCCC(=N)N` [netropsin], the therapeutic efficacy [4] is listed as “low therapeutic efficacy”.
